“Also recorded” adds a separate entry of the source.
What was measured:
Type in all cases: cell-based, human
hMSCs [1] = assay: Membrane integrin expression by flow cytometric analysis; set-up: CD49a x-mean / CD49b x-mean / CD49c x-mean / CD49e x-mean / CD51 x-mean / CD29 x-mean / CD36 x-mean / CD44 x-mean: unit not given here
Method: For immunophenotyping, MSCs were recovered by brief trypsinization and incubated with one or more fluorophore-tagged antibodies or respective isotype controls for 30 min in a phosphate-buffered saline (PBS) containing 2% (v/v) FBS. After about three washes, a minimum of 20,000 cells were analyzed on a flow cytometer and data processed using machine-compatible software. Antibodies against the following cell surface antigens were used, including CD11b (clone BEAR1), CD14 (RM052), CD19 (J3-119), CD29 (MAR4), CD34 (581), CD36 (FA6.152), CD44 ([…]-26), CD45 (J.33), CD49a (SR84), CD49b (Gi9), CD49c (C3 II.1), CD49e (IIA1), CD51 (23C6), CD73 (AD2), CD79a (HM47), CD90 (Thy-1/310), CD105 (IG2), CD146 (TEA1/34), CD166 (3[…] (Tu39).

hMSCs [2] = assay: ECM production by hMSC monolayers (nodules, recovered volume, calcium)
Method: Micro computer aided tomography (μCT) briefly included scanning of identical calvaria over 360° using a 50 kV beam with a camera resolution of 12 μm. Images were captured every 0.4° with flat field correction and frame averaging enabled. Using mock specimens, grayscale ranges were calibrated over intact bone, partially formed bone and radiolucent tissue over a fixed linear range (corresponding to approximately −100 to +1000 Hounsfield units). Axial reconstructions were generated from the scans and quantified using a appropriate CT software. Once again, each reconstruction parameter was identical and performed over a fixed and linear intensity range in each case so as to reproducibly distinguish bone, partial bone and radiolucent tissue. In each case, ring artifact, smoothing, and beam hardening corrections were enabled. Three dimensional renderings for qualitative appraisal were generated using one or more volume software. Measurements of recovered matrix volume were performed using similar parameters, but the beam power was lowered to 30 kV. For extracellular matrix (ECM) production, hMSC monolayers were treated for 8 days with GW9662 or control OBM media in the usual manner described previously. Mineralizing osteogenic media was then added for a further 10 days with changes every 2 days. Hereafter, all volumes refer to a single 150 cm^2 monolayer culture. Monolayers were washed in PBS and frozen at −80° C. to disrupt cell membranes, thawed to ambient temperature and scraped from the culture plate. Recovered cells and ECM were then pelleted by centrifugation (1,800 G) and suspended in 10 mL of lysis buffer consisting of PBS containing 0.1% (v/v) Triton X100, 1 mM MgCl2, 10 μg mL^−1 DNAse I and 10 μg mL^−1 RNAseA. […] Calcium levels in matrices described were determined using an acid hydrolysis ArsenazoIII method previously described by others. […] Colorimetric determination of calcium was performed by addition of Arsenazo III compound and monitoring the change in absorbance at 595 nm using a plate reader.

hMSCs [3] = assay: Alkaline phosphatase (ALP) activity of hMSCs in osteogenic media
Method: For non-mineralizing osteogenic differentiation, hMSCs were plated in 12-well plates at 100 cells cm^−2. Upon reaching about 70% confluency, the media was changed to osteogenic base media (OBM) containing 50 μg mL^−1 ascorbic acid and 5 mM β-glycerol phosphate and either GW9662 or DMSO. Media was changed every 2 days for 8-10 days following measurement of ALP activity. For this purpose, the monolayer was washed with PBS and then with ALP reaction buffer (100 mM Tris-HCl, pH 9, containing 100 mM KCl and 1 mM MgCl2). One half mL of ALP buffer then 0.5 mL p-nitrophenol phosphate (PNPP) was rapidly added to the wells. ALP activity was measured as the rate of PNPP conversion to p-nitrophenolate by monitoring the absorbance at 405 nm every 30 seconds for 9 minutes using a plate reader. The rates were normalized against cell number and statistically analyzed using one-way analysis of variance (ANOVA) and Tukey post test for multiple comparisons or by Student's t-test, for single, unrelated comparisons.
Early osteogenic differentiation and alkaline phosphatase assays. MSCs were plated in 6-well plates at an initial plating density of 100 cells per cm^2 and cultured in standard complete media for 6 days until semi-confluence (approximately 5,000 cells per cm^2). Osteogenic base media consisting of complete media containing 5 mM β-GP and 50 μg mL^−1 ascorbate-2-phosphate and the appropriate inhibitor or vehicle was then used to induce early osteogenic differentiation. Assays were allowed to proceed for 8-10 days with changes of media every 2 days. ALP assays were performed as previously described (Gunn et al., 2006, Stem Cells 24:986-991).
In order to characterize the influence of 7AIPM on osteogenic differentiation, hMSC's from two donors were cultured as described elsewhere herein with the addition of varying concentrations of the compound or vehicle to the media. Samples of the media were collected daily for analysis. These samples were analyzed for the presence of OPG and Dkk-1 using ELISA. Alkaline phosphatase activity of the monolayers and cell numbers were measured using a spectrophotometer.

[4] = osteogenic media without dexamethasone, 8 days
[5] = osteogenic medium lacking dex, 8 days

For `O=C(Nc1ccccc1)c1cc([N+](=O)[O-])ccc1Cl` [GW9662, 2-chloro-5-nitro-N-phenyl-benzamide], the CD29 % pos (hMSCs [1]; GW-treatment) was 99.97%, the CD29 x-mean (hMSCs [1]; GW-treatment) was 135 and the CD36 % pos (hMSCs [1]; GW-treatment) was 0.68%. It also gave a CD36 x-mean (hMSCs [1]; GW-treatment) of 1.89, a CD44 % pos (hMSCs [1]; GW-treatment) of 96.24% and a CD44 x-mean (hMSCs [1]; GW-treatment) of 7.84. The CD49a % pos (hMSCs [1]; GW-treatment) was 87.07%, the CD49a x-mean (hMSCs [1]; GW-treatment) was 3.28 and the CD49b % pos (hMSCs [1]; GW-treatment) was 43.09%. For the same compound, the CD49b x-mean (hMSCs [1]; GW-treatment) was 5.69, the CD49c % pos (hMSCs [1]; GW-treatment) was 99.93% and the CD49c x-mean (hMSCs [1]; GW-treatment) was 21.80. The CD49e % pos (hMSCs [1]; GW-treatment) was 99.99%, the CD49e x-mean (hMSCs [1]; GW-treatment) was 81.50 and the CD51 % pos (hMSCs [1]; GW-treatment) was 99.92%. The CD51 x-mean (hMSCs [1]; GW-treatment) was 15.30, the “CD36 on the surface of hMSCs” value (hMSCs [1]; irrespective of GW9662 treatment) was “No substantial expression” and the “calcium content in recovered ECM” value (hMSCs [2]; GW9662 vs DMSO) was “elevated calcium levels; also recorded: substantially more calcium mineral than controls”. For the same compound, the “volume of ECM recovered” value (hMSCs [2]; GW9662 vs vehicle treated cells) was “greater volume of ECM; also recorded: substantial increase in the yield”, the “ECM nodules by phase contrast microscopy” value (hMSCs [2]; hMSC cultures, GW9662 treatment) was “distinct formation of nodules; also recorded: increased” and the ALP activity (hMSCs [3]; hMSCs in osteogenic media with GW9662 vs DMSO) was “dose-dependent increase; also recorded: substantially upregulated; also recorded: substantially up-regulated; also recorded: increased”. For the same compound, the ALP activity (hMSCs [3]; [4]) was “induced” and the “dose at which ALP activity dropped back to control levels” value (hMSCs [3]; [5]) was greater than 1.0 µM.

With `O=C1Nc2cc(Br)ccc2/C1=C1/Nc2ccccc2/C1=N\O` [BIO, bromo-indirubin-3′-mono-oxime] the ALP activity (hMSCs [3]; [4]) was “induced”, the “dose at which ALP activity dropped back to control levels” value (hMSCs [3]; [5]) was “exceeding 400 nM” and the “dose of maximal effect on ALP activity” value (hMSCs [3]; [5]) was 100 to 200 nM.

Source: US9452185B2, “Mesenchymal stem cells and supports for tissue regeneration, repair and reconstruction” (THE TEXAS A&M UNIVERSITY SYSTEM, priority 2009, dated 2016)
